Molecules are shown by their SMILES.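 Assay format: 96-well plates, 48-hour exposure. Here, GI50 denotes the concentration required for 50% inhibition of growth. TGI: concentration producing complete growth inhibition.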

Test systems include RPMI-8226 leukemia; OVCAR-5 ovarian; HCT-15 colon; DU-145 prostate; CAKI-1 renal; PC-3 prostate; SK-MEL-2 melanoma; ACHN renal; SNB-75 CNS; SK-MEL-28 melanoma.
Common to all, as to test: DTP human tumour cell line panel, 48 h

As usually defined, the GI50 is the concentration at which growth is held to half of that of the control. By TGI is commonly meant the concentration giving total growth inhibition. Read a high TGI as lower sensitivity of the cells. Turning to `C=C(NC(=O)C(=C)NC(=O)c1csc(C2=NC3c4csc(n4)C4NC(=O)c5csc(n5)C(C(C)(O)C(C)O)NC(=O)C5CSC(=N5)C(=CC)NC(=O)C(C(C)O)NC(=O)c5csc(n5)C3(CC2)NC(=O)C(C)NC(=O)C(=C)NC(=O)C(C)NC(=O)C(C(C)CC)NC2C=Cc3c(C(C)O)cc(nc3C2O)C(=O)OC4C)n1)C(N)=O` (centres undefined), the GI50 is 1.79 µM with RPMI-8226 leukemia; 25.5 µM in the assay with OVCAR-5 ovarian; 65.6 µM in the assay on HCT-15 colon; 58.7 µM in the assay on DU-145 prostate; 14.6 µM with CAKI-1 renal; 77.5 µM with PC-3 prostate. In addition, the GI50 in the assay with SK-MEL-2 melanoma was 19 µM; in the assay with ACHN renal, 8.25 µM; in the assay with SNB-75 CNS it was 8.12 µM; in the assay with SK-MEL-28 melanoma, 7.09 µM. Besides, the TGI is 19.7 µM with RPMI-8226 leukemia; 79.9 µM with OVCAR-5 ovarian; greater than 100 µM with HCT-15 colon; greater than 100 µM in the assay with DU-145 prostate; greater than 100 µM in the assay on CAKI-1 renal; greater than 100 µM in the assay on PC-3 prostate. The TGI in the assay with SK-MEL-2 melanoma is greater than 100 µM; with ACHN renal, greater than 100 µM; in the assay with SNB-75 CNS, 83.7 µM; in the assay with SK-MEL-28 melanoma it was 24.5 µM.
For `C[C@@H](O)[C@H](NC(=O)N[C@@H](CC(N)=O)c1nc([C@@H](N)CO)no1)C(=O)O`, the GI50 in the assay with RPMI-8226 leukemia, in the assay on OVCAR-5 ovarian, in the assay on HCT-15 colon, in the assay on DU-145 prostate, with CAKI-1 renal and in the assay with PC-3 prostate was greater than 100 µM throughout. In addition, the GI50 in the assay on SK-MEL-2 melanoma, in the assay on ACHN renal, with SNB-75 CNS and in the assay on SK-MEL-28 melanoma was greater than 100 µM in each case. In addition, the TGI with RPMI-8226 leukemia, with OVCAR-5 ovarian, in the assay on HCT-15 colon, in the assay with DU-145 prostate, in the assay with CAKI-1 renal and with PC-3 prostate was greater than 100 µM each time. The total growth inhibition concentration (TGI) in the assay with SK-MEL-2 melanoma, in the assay on ACHN renal, with SNB-75 CNS and in the assay on SK-MEL-28 melanoma was greater than 100 µM in each case.
On to `CC(=Nc1ccccc1)C1=C(O)C(Cc2ccc(O)cc2)NC1=O` (centres undefined), for which the GI50 in the assay on RPMI-8226 leukemia is 0.169 µM; with OVCAR-5 ovarian it was 0.548 µM; with HCT-15 colon, 0.0585 µM; in the assay with DU-145 prostate, 0.178 µM; in the assay with CAKI-1 renal, 0.0635 µM; with PC-3 prostate, 0.0538 µM. For the same compound, the GI50 with SK-MEL-2 melanoma was 0.206 µM; with ACHN renal, 0.0738 µM; with SNB-75 CNS, 0.07 µM; in the assay with SK-MEL-28 melanoma, 0.0594 µM. Further, the TGI with RPMI-8226 leukemia is greater than 100 µM; in the assay on OVCAR-5 ovarian, greater than 100 µM; in the assay on HCT-15 colon, greater than 46.8 µM; with DU-145 prostate, 0.994 µM; with CAKI-1 renal it was greater than 100 µM; in the assay on PC-3 prostate, greater than 100 µM. The TGI was greater than 100 µM in the assay with SK-MEL-2 melanoma, greater than 100 µM in the assay on ACHN renal, 0.566 µM in the assay on SNB-75 CNS and greater than 100 µM in the assay on SK-MEL-28 melanoma.
Turning to `COc1cc(N2CCC(N3CCN(C)CC3)CC2)ccc1Nc1ncnc(Nc2ccccc2S(=O)(=O)C(C)C)n1`, the GI50 was 10.9 µM in the assay with RPMI-8226 leukemia; 2.06 µM with OVCAR-5 ovarian; 3.5 µM in the assay on HCT-15 colon; 5.32 µM in the assay with DU-145 prostate; 3.32 µM in the assay on CAKI-1 renal; 5.33 µM in the assay with PC-3 prostate. The GI50 with SK-MEL-2 melanoma was 5.83 µM; with ACHN renal, 2.38 µM; with SNB-75 CNS, 3.63 µM; in the assay on SK-MEL-28 melanoma it was 10.9 µM. The TGI was 41.9 µM in the assay on RPMI-8226 leukemia; 12.8 µM with OVCAR-5 ovarian; greater than 46.5 µM in the assay on HCT-15 colon; 20.9 µM in the assay with DU-145 prostate; 13 µM in the assay with CAKI-1 renal; greater than 51.4 µM with PC-3 prostate. The TGI in the assay on SK-MEL-2 melanoma amounted to 16.3 µM; in the assay with ACHN renal, 14.8 µM; in the assay on SNB-75 CNS, 15.9 µM; in the assay on SK-MEL-28 melanoma, 34.9 µM.
Consider `COc1ccc(/C(COc2ccc3c(=O)c(-c4ccccc4)coc3c2)=N\O)cc1`, for which the GI50 in the assay with RPMI-8226 leukemia was 2.29 µM; in the assay on HCT-15 colon, 0.349 µM; in the assay on DU-145 prostate, 4.09 µM; in the assay on CAKI-1 renal, 1.46 µM; with PC-3 prostate, 6.53 µM; in the assay with SK-MEL-2 melanoma it was 3.5 µM. The values for the GI50 in the assay on ACHN renal, with SNB-75 CNS and in the assay with SK-MEL-28 melanoma were 11.3 µM, 14.5 µM and 10.2 µM, respectively. The TGI in the assay on RPMI-8226 leukemia is greater than 54.2 µM; in the assay on OVCAR-5 ovarian it was greater than 96.5 µM; with HCT-15 colon, 12.9 µM; in the assay with DU-145 prostate it was 33.4 µM; in the assay with CAKI-1 renal it was 7.47 µM; in the assay with PC-3 prostate, 58.7 µM. Besides, the TGI was 23.7 µM with SK-MEL-2 melanoma, 34 µM in the assay with ACHN renal, greater than 70.9 µM in the assay with SNB-75 CNS and greater than 90.9 µM with SK-MEL-28 melanoma.
Consider `O=C1O/C(=C\c2ccccc2)N(c2ccccc2)C1=O`, for which the total growth inhibition concentration (TGI) with RPMI-8226 leukemia, in the assay with OVCAR-5 ovarian, in the assay on HCT-15 colon, in the assay with DU-145 prostate, in the assay on CAKI-1 renal and in the assay with PC-3 prostate was greater than 100 µM in each case. Further, the TGI with SK-MEL-2 melanoma, in the assay with ACHN renal, in the assay on SNB-75 CNS and in the assay with SK-MEL-28 melanoma was greater than 100 µM in each case.
Regarding `C[C@]12CC[C@@H]3c4cc(-c5ccc(F)cc5)c(O)cc4CC[C@H]3[C@@H]1CC[C@@H]2O`, the GI50 in the assay with RPMI-8226 leukemia was 2.78 µM; in the assay with OVCAR-5 ovarian, 19.1 µM; with HCT-15 colon it was 5.61 µM; with DU-145 prostate, 12.5 µM; with CAKI-1 renal it was 6.47 µM; in the assay with PC-3 prostate, 4.63 µM. For the same compound, the GI50 in the assay with SK-MEL-2 melanoma was 5.81 µM; in the assay on ACHN renal, 5.86 µM; with SNB-75 CNS it was 2.06 µM; in the assay with SK-MEL-28 melanoma it was 14.2 µM. In addition, the TGI stood at 16.5 µM in the assay on RPMI-8226 leukemia; 39.2 µM in the assay with OVCAR-5 ovarian; 18.8 µM in the assay with HCT-15 colon; 25 µM in the assay on DU-145 prostate; 21.5 µM with CAKI-1 renal; 21.8 µM in the assay on PC-3 prostate. The TGI with SK-MEL-2 melanoma came out at 19.8 µM; with ACHN renal, 18.9 µM; in the assay with SNB-75 CNS, 8.38 µM; in the assay on SK-MEL-28 melanoma it was 28 µM.
